The text below walks through data of PMC8605905 (Oxidative Medicine and Cellular Longevity, 2021).

Series [1] relates to CRE-GFP 293 cells. The series is described as follows: MTT cell viability of CRE-GFP 293 cells. The class given is cell-based, Human. As to conditions: 2 μM for 3–6 h. How it is done:
(§1) On day 1, CRE-GFP 293 cells were seeded into 48-well plates (5 × 10^4/well). After 24 h, cells were treated with Ca^2+ ionophore (2 μM) (Sigma-Aldrich) for 0–24 h. Cell viability was measured using 3,(4,5-dimethylthiazol-2-yl)-2,5-diphenyltetrazolium bromide (MTT) assay (Sigma-Aldrich). The absorbance of the insoluble purple formazan dye was quantified at 570 nm on a μQuant microplate spectrophotometer (Bio-Tek). In addition, the cells were treated with the Ca^2+ ionophore A23187 (0.5–10 μM) (Sigma-Aldrich) for 5 h, followed by analysis of GFP fluorescence by flow cytometry (Becton–Dickinson, Franklin Lakes, NJ, USA) with excitation/emission wavelengths at 488/507 nm. To monitor CREB activation, cells were treated with forskolin or coumarin-chalcone derivatives (5–10 μM) in the presence or absence of Ca^2+ ionophore (2 μM) for 5 h, and GFP fluorescence was analysed.

For series [2], the system named is CRE-GFP 293 cells. Put plainly: CRE-GFP 293 reporter cell assay (flow cytometry). The format is cell-based, Human. As to conditions: 0.5–2 μM for 5 h.
Text: Using the pCRE-MetLuc2-Reporter plasmid (Clontech, Mountain View, CA, USA) as a template, the DNA fragment containing the cAMP response element (CRE) motifs and TATA-like promoter (PTAL) flanked by MluI and AgeI restriction sites was amplified by PCR using sense ([…], MluI site underlined) and antisense ([…], AgeI site underlined) primers. The amplified CRE-PTAL promoter fragment was cloned into pGEM-T Easy (Promega, Madison, WI, USA) and sequenced. The CRE-PTAL-containing MluI/AgeI fragment and GFP-containing AgeI/NotI fragment (from pEGFP-N1; Clontech) were subcloned into MluI- and NotI-digested pcDNA5/FRT/TO (Novagen, Madison, WI, USA). The resulting construct with CRE-PTAL-driving GFP was used to establish 293 GFP reporter cells by targeting insertion into Flp-In-293 cells according to the supplier's instructions (Invitrogen). The cells were grown in a medium containing 5 μg/ml blasticidin and 100 μg/ml hygromycin.
as §1
To monitor the cAMP-mediated signal transduction pathway, CRE-GFP 293 cells in 6-well plates (1 × 10^6/well) were pretreated with kinase inhibitor H-89 (LC Laboratories, Woburn, MA, USA), KN-62 (Cayman Chemical, Ann Arbor, MI, USA), U0126 (LC Laboratories), or wortmannin (LC Laboratories) (10 μM) for 4 h before forskolin or LM-021 (10 μM) addition for 5 h. GFP fluorescence/protein and total/phosphorylated PKA, CaMKII, ERK, PI3K, and CREB levels were examined. In addition, Aβ-GFP or ∆K280 tauRD-DsRed SH-SY5Y cells were treated with retinoic acid (10 μM) on day 1, followed by the addition of LM-021 (5 or 10 μM) and doxycycline (5 or 2 μg/ml) on day 2, as described. Kinase inhibitors (10 μM) were added on day 6. On day 8, the cells were collected for protein expression analysis of BDNF, BCL2 (BCL2 apoptosis regulator), and BAX (BCL2 associated X, apoptosis regulator), and total/phosphorylated PKA, CaMKII, ERK, PI3K, and CREB. Also, cells were stained with DAPI and assessed for neurite outgrowth as described above.
For orientation: A flow cytometer gives signals particle by particle.

For series [3] the following is noted: in vivo, po; cited from earlier work.

With `CNc1ccc2oc(C[C@H]3O[C@@]4(CC[C@H]3C)O[C@H]([C@H](C)C(=O)c3ccc[nH]3)[C@H](C)C[C@H]4C)nc2c1C(=O)O` [Ca^2+ ionophore], in series [1], the “Cell viability (MTT)” value is given as “No significant cell death”. Moreover, the “CRE-motif-driven GFP expression” value in series [2] is “stimulated”.
`N[C@@H](Cc1ccc(O)c(O)c1)C(=O)O` [levodopa]: the “Share of orally administered dose that enters the brain” value in series [3] is on record as “about 1%”.
